Laboratory results published in patent publication US12551532B2, “Long-acting amylin receptor agonists and uses thereof” (Eli Lilly and Company, priority 2021, dated 2026).

What was measured:
[1] = system: human dendritic cells; format: cell-based
Description: MAPPS profiles the MHC-II presented peptides on human dendritic cells treated with tested molecules. CD14+ cells, isolated from the PBMCs of normal human donors, are cultured and differentiated into immature DCs by incubation with IL-4 and GM-CSF. On day 4, culture media is replaced with fresh media containing tested molecules. On day 5, LPS is added to transform the cells into mature DCs. On day 6, cells are lysed in RIPA buffer with protease inhibitors. Immunoprecipitation of MHC-II complexes are performed using biotinylated anti-MHC-II antibody coupled to streptavidin beads. The bound complex is eluted and filtered. The isolated MHC-II peptides are analyzed by a mass spectrometer. Peptide identifications are generated by an internal proteomics pipeline using search algorithms with no enzyme and a bovine/human database with test sequences appended to the database. A KNIME workflow is used to process the identification files from the samples. Peptides identified from the test articles are aligned against the parent sequence of the test molecule. The output is used to determine the percentage of donors displaying MHC-II peptides from regions of the test molecule. Compound II, Compound IV, Compound VI, Compound VIII, a compound representative of U.S. Pat. No. 9,023,789 (hereinafter “Compound '789”), and Pramlintide are tested in the MAPPs assay.

[2] = system: CD4+ T cells
Description: This assay assesses the ability of tested antibodies or tested MAPPS peptides to activate CD4+ T cells by inducing cellular proliferation. CD8+ T cell depleted PBMC's are prepared and labeled with CFSE. Each sample is tested with media control, keyhole limpet haemocyanin (KLH; positive clinical benchmark control), tested antibodies, or tested MAPPS peptides. Cultures are incubated for 7 days. On day 7, samples are analyzed by flow cytometry.

MAPPS Assay donors displayed peptides [1]: 10/10
MAPPS Assay immunogenicity risk [1]: High Risk
SMILES: CC[C@H](C)[C@H](NC(=O)[C@@H]1CCCN1C(=O)CNC(=O)[C@H](Cc1ccccc1)NC(=O)[C@H](CC(N)=O)NC(=O)[C@H](CC(N)=O)NC(=O)[C@H](CO)NC(=O)[C@H](CO)NC(=O)[C@H](Cc1c[nH]cn1)NC(=O)[C@@H](NC(=O)[C@H](CC(C)C)NC(=O)[C@H](Cc1ccccc1)NC(=O)[C@H](CC(N)=O)NC(=O)[C@H](C)NC(=O)[C@H](CC(C)C)NC(=O)[C@H](CCCNC(=N)N)NC(=O)[C@H](CCC(N)=O)NC(=O)[C@@H](NC(=O)[C@H](C)NC(=O)[C@@H]1CSSC[C@H](NC(=O)[C@@H](N)CCCCN)C(=O)N[C@@H](CC(N)=O)C(=O)N[C@@H]([C@@H](C)O)C(=O)N[C@@H](C)C(=O)N[C@@H]([C@@H](C)O)C(=O)N1)[C@@H](C)O)C(C)C)C(=O)N[C@@H](CC(C)C)C(=O)N1CCC[C@H]1C(=O)N1CCC[C@H]1C(=O)N[C@H](C(=O)N[C@@H](CC(N)=O)C(=O)N[C@H](C(=O)NCC(=O)N[C@@H](CO)C(=O)N[C@@H](CC(N)=O)C(=O)N[C@H](C(=O)N[C@@H](Cc1ccc(O)cc1)C(N)=O)[C@@H](C)O)C(C)C)[C@@H](C)O [Compound XV, reference compound]
peptides displayed on MHC-II complexes [1]: two peptide clusters that in total span residues 1-34
T Cell Proliferation Assay: protein, immunogenicity risk [2]: High Risk
T Cell Proliferation Assay: protein, positive donors [2]: (7/7 positive
